According to US20210285933A1, “HIGH THROUGHPUT DRUG SCREENING OF CANCER STEM CELLS” (UNIVERSITY OF WASHINGTON, priority 2018, published 2021):
Entries after “also recorded” stand apart in the source; their conditions may differ. Residues, ends and D or L forms follow the SMILES beside them. *: point of attachment. Cbz = O=C(OCc1ccccc1)*

Key:
[1] = tested on: leukemia stem cells (LSCs) CD34+CD38low or negCD123+ from AML patient samples; assay: High throughput functional drug screen (72-hour exposure, CellTiter Glo viability) on FACS sorted LSCs; assay type: cell-based, human; design: AUC Stem Mean: unit not given here; details: for AUC Stem Mean: mean area under dose response curve across patient samples, 72-hour exposure, 8 concentrations; for mean IC50 of LSC samples compared to predicted plasma concentration: FIG. 9, expected plasma concentration in patients with typical dosing; for Effectiveness vs. LSCs (AUCstem mean < mitomycin C AUCblast mean, p<0.1): aggregate viability data of patient samples, in vitro 72 h; for LSC drug response in dose response curves: FIG. 1C
Protocol: (§1) Isolation of blasts and FACS isolation of LSCs: CD34+ blasts were enriched to >90% using immunomagnetic beads (QuadroMACS). Fluorescence activated cell sorting was performed in a biosafety cabinet enclosed FACS-Aria II (Becton-Dickinson; San Jose, Calif.) housed in the University of Washington Core Cell Analysis Facility where voltage was standardized and calibration was performed daily. Mononuclear cells were stained with allophycocyanin H7 (APC-H7) conjugated anti-human CD45, allophycocyanin (APC) conjugated anti-human CD34, phycoerythrin-Cy7 (PE-Cy7) conjugated anti-human CD38 and phycoerythrin (PE) conjugated anti-human CD123 (all from BD Biosciences Pharmingen, San Jose, Calif.). Initially a blast gate was applied for forward scatter vs. side scatter, then sequential gates for CD45 vs. side scatter, CD34+ and CD38^low or neg, then CD123+ cells to yield the LSCs. The CD38low population was defined by CD38 above the isotype control and below that of mature precursors. Flow cytometry data analysis was performed using FlowJo software (Tree Star, Inc. Ashland, Oreg.).
(§2) After overnight incubation on matrix protein coated 384 well plates, drugs were added to each well using a CyBio Well Vario liquid handler (Amalytik Jena). The cell populations were analyzed for survival after a 72-hour exposure to 8 customized drug concentrations (within the range of 5 pM to 100 microM) of each drug spanning 4 logs. Post exposure viability was measured using CellTiter Glo luminescent reagent (Promega, Madison, Wis.) per manufacturer protocol, then the plates were analyzed with the Envision Multi-label plate reader (Perkin Elmer, Waltham, Mass.). XLFit software (IDBS, Guildford, Surrey, United Kingdom) was used to analyze the data and generate dose response curves based on standard 4-parameter logistic fit. For each plate, data were normalized to DMSO 100% viability and blank controls.
(§3) Area under the curve (AUC) was calculated for each dose response curve. For the 4 patient samples, two-sample two-tailed t-tests were used for group comparisons of AUC values to determine drug specificity and efficacy.
(§4) Drug specificity was defined by group comparisons between AUCs for each drug and cell type across patient samples. […] Group comparisons for categorical variable were completed using Fisher's exact test.

[2] = tested on: AML blasts vs. leukemia stem cells (LSCs); assay: Drug specificity: group comparison of AUCs, blasts vs. LSCs across patient samples; assay type: cell-based, human; details: aggregate viability data of patient samples; pairwise p-value<0.1
Protocol: as §2, §3, §4

[3] = tested on: AML blasts (CD45dim, side scatter low) from patient samples; assay: High throughput functional drug screen (72-hour exposure, CellTiter Glo viability) on AML blasts; assay type: cell-based, human; details: for mean IC50 of blast samples compared to predicted plasma concentration: FIG. 9, expected plasma concentration in patients with typical dosing
Protocol: as §1
Functional Drug Screen: A CLIA-validated in vitro sensitivity assay was performed that included both FDA approved and investigational drugs. ‘Oncopane11’ comprised of 153 drugs was used for HTS of patient samples and an earlier generation panel of 160 drugs was used for HTS of the NOD/SCID IL2R γc−/− mouse engraftment sample. As detailed above, for the 4 patient samples, using FACS, the blast population (CD45^dim, side scatter^low) was confirmed to be >90% of the viable white blood cell fraction, and the LSC subpopulation (CD34^+CD38^low or negCD123^+) was isolated. For the NOD/SCID IL2R γc−/− mouse engraftment sample, both the pre-engraftment AML blasts (>90% blasts by FACs) and splenic mononuclear cells (91% hCD45+ engrafting subclone as above) were assayed. After overnight incubation on matrix protein coated 384 well plates, drugs were added to each well using a CyBio Well Vario liquid handler (Amalytik Jena). The cell populations were analyzed for survival after a 72-hour exposure to 8 customized drug concentrations (within the range of 5 pM to 100 microM) of each drug spanning 4 logs. Post exposure viability was measured using CellTiter Glo luminescent reagent (Promega, Madison, Wis.) per manufacturer protocol, then the plates were analyzed with the Envision Multi-label plate reader (Perkin Elmer, Waltham, Mass.). XLFit software (IDBS, Guildford, Surrey, United Kingdom) was used to analyze the data and generate dose response curves based on standard 4-parameter logistic fit. For each plate, data were normalized to DMSO 100% viability and blank controls.
as §3
Drug specificity was defined by group comparisons between AUCs for each drug and cell type across patient samples. For blast specific drugs AUCstem mean>AUCblast mean and for LSC specific drugs AUC^stem mean<AUC^blast mean (p<0.1). […] This approach was selected to detect differences within the small sample size, while still maintaining statistical stringency and capturing trends observed in the data set. Group comparisons for categorical variable were completed using Fisher's exact test.

LSCs = details: literature; cited from earlier work
AML = details: literature; cited from earlier work
pediatric AML blasts = details: literature; cited from earlier work

## CC(C)C[C@@H](C=O)NC(=O)[C@H](CC(C)C)NC(=O)[C@H](CC(C)C)NC(=O)OCc1ccccc1 [MG-132] (Cbz-Leu-Leu-Leu-aldehyde)
[1]
  AUC Stem Mean: 0.0039

## Nc1nc(Cl)nc2c1ncn2[C@@H]1O[C@H](CO)[C@@H](O)[C@@H]1F [clofarabine]
[1]
  mean IC50 of LSC samples compared to predicted plasma concentration: greater than the predicted plasma concentration
[2]
  Drug specificity (blast specific: AUCstem mean>AUCblast mean; LSC specific: AUCstem mean<AUCblast mean): trended towards blast cell specific; also recorded: trended towards blast cell-specific
[3]
  mean IC50 of blast samples compared to predicted plasma concentration: less than predicted plasma concentration

## CC1(COc2ccc3c(c2)ncn3-c2ccc3cccc(N4CCC(N)CC4)c3n2)COC1 [Crenolanib]
[1]
  AUC Stem Mean: 0.0054

## CC(C)C[C@H](NC(=O)CNC(=O)c1cc(Cl)ccc1Cl)B(O)O [ixazomib]
LSCs
  anti-LSC effect in vitro in prior studies: anti-LSC effect was shown in vitro

## Cc1ccc(C(=O)Nc2ccc(CN3CCN(C)CC3)c(C(F)(F)F)c2)cc1C#Cc1cnc2cccnn12 [Ponatinib]
[1]
  AUC Stem Mean: 0.00085

## CCc1cnn2c(NCc3ccc[n+]([O-])c3)cc(N3CCCC[C@H]3CCO)nc12 [Dinaciclib]
[1]
  AUC Stem Mean: 0.048

## CN1CCC(CNc2ccc3ncc(-c4cccc(OC(F)(F)F)c4)n3n2)CC1 [SGI-1776]
[1]
  AUC Stem Mean: 0.00076

## CC(C)C[C@H](NC(=O)[C@H](CCc1ccccc1)NC(=O)CN1CCOCC1)C(=O)N[C@@H](Cc1ccccc1)C(=O)N[C@@H](CC(C)C)C(=O)[C@@]1(C)CO1 [Carfilzomib]
LSCs
  anti-LSC effect in vitro in prior studies: reduced LSCs in vitro
[1]
  Effectiveness vs. LSCs (AUCstem mean < mitomycin C AUCblast mean, p<0.1): not effective
AML
  clinical effect in AML patients: minimal anti-leukemic effects

## CC(C)C[C@H](NC(=O)[C@H](Cc1ccccc1)NC(=O)c1cnccn1)B(O)O [bortezomib]
[1]
  Effectiveness vs. LSCs (AUCstem mean < mitomycin C AUCblast mean, p<0.1): ineffective

## COCCn1c2c([n+](Cc3cnccn3)c1C)C(=O)c1ccccc1C2=O [YM-155]
[1]; patient sample on the left
  LSC drug response in dose response curves: sensitive
[1]
  Effectiveness vs. LSCs (AUCstem mean < mitomycin C AUCblast mean, p<0.1): effective
  AUC Stem Mean: 0.00089

## CNC(=O)c1cc(Oc2ccc(NC(=O)Nc3ccc(Cl)c(C(F)(F)F)c3)cc2)ccn1 [Sorafenib]
[1]
  Effectiveness vs. LSCs (AUCstem mean < mitomycin C AUCblast mean, p<0.1): effectively killed; also recorded: effective
  AUC Stem Mean: 0.0045
[2]
  Drug specificity (blast specific: AUCstem mean>AUCblast mean; LSC specific: AUCstem mean<AUCblast mean): LSC specific; also recorded: LSC-specific

## Nc1nc(Cl)nc2c1ncn2[C@H]1C[C@H](O)[C@@H](CO)O1 [Cladribine]
[1]
  mean IC50 of LSC samples compared to predicted plasma concentration: greater than the predicted plasma concentration
[2]
  Drug specificity (blast specific: AUCstem mean>AUCblast mean; LSC specific: AUCstem mean<AUCblast mean): blast cell specific; also recorded: blast cell-specific
[3]
  mean IC50 of blast samples compared to predicted plasma concentration: less than predicted plasma concentration

## Nc1ccn([C@@H]2O[C@H](CO)[C@@H](O)[C@@H]2O)c(=O)n1 [Cytarabine]
[1]; patient sample on the left
  LSC drug response in dose response curves: resistant
[1]; patient sample on the right
  LSC drug response in dose response curves: resistant
[1]
  mean IC50 of LSC samples compared to predicted plasma concentration: greater than the predicted plasma concentration
[2]
  Drug specificity (blast specific: AUCstem mean>AUCblast mean; LSC specific: AUCstem mean<AUCblast mean): blast cell specific; also recorded: blast cell-specific
[3]
  mean IC50 of blast samples compared to predicted plasma concentration: less than predicted plasma concentration

## Nc1ncn([C@@H]2O[C@H](CO)[C@@H](O)[C@H]2O)c(=O)n1 [Azacitidine]
[1]
  Effectiveness vs. LSCs (AUCstem mean < mitomycin C AUCblast mean, p<0.1): did not result in appreciable cytotoxicity
[2]
  Drug specificity (blast specific: AUCstem mean>AUCblast mean; LSC specific: AUCstem mean<AUCblast mean): LSC specific; also recorded: LSC-specific

## Cc1ccc([N+](=O)[O-])cc1S(=O)(=O)N(C)/N=C/c1cnc2ccc(Br)cn12 [PIK-75]
[1]
  Effectiveness vs. LSCs (AUCstem mean < mitomycin C AUCblast mean, p<0.1): effective
  AUC Stem Mean: 0.0041

## Cc1csc(-c2nnc(Nc3ccc(Oc4ncccc4-c4ccnc(N)n4)cc3)c3ccccc23)c1 [AMG-900]
[1]; patient sample on the right
  LSC drug response in dose response curves: sensitive

## CC(=O)[C@]1(O)Cc2c(O)c3c(c(O)c2[C@@H](O[C@H]2C[C@H](N)[C@H](O)[C@H](C)O2)C1)C(=O)c1ccccc1C3=O [Idarubicin]
[1]; patient sample on the left
  LSC drug response in dose response curves: resistant
[1]
  mean IC50 of LSC samples compared to predicted plasma concentration: greater than the predicted plasma concentration
[2]
  Drug specificity (blast specific: AUCstem mean>AUCblast mean; LSC specific: AUCstem mean<AUCblast mean): blast cell specific; also recorded: blast cell-specific
[3]
  mean IC50 of blast samples compared to predicted plasma concentration: less than predicted plasma concentration

## CO[C@@]12[C@H](COC(N)=O)C3=C(C(=O)C(C)=C(N)C3=O)N1C[C@@H]1N[C@@H]12 [Mitomycin C]
[1]; FIG. 3, both patient samples
  LSC response to mitomycin C in dose response curves: resistant
[2]
  Drug specificity (blast specific: AUCstem mean>AUCblast mean; LSC specific: AUCstem mean<AUCblast mean): blast cell specific
[3]; FIG. 3, both patient samples
  Blast response to mitomycin C in dose response curves: sensitive

## CO[C@H]1C(=O)[C@]2(C)[C@@H](OC)C[C@H]3OC[C@@]3(OC(C)=O)[C@H]2[C@H](OC(=O)c2ccccc2)[C@]2(O)C[C@H](OC(=O)[C@H](O)[C@@H](NC(=O)OC(C)(C)C)c3ccccc3)C(C)=C1C2(C)C [Cabazitaxel]
Pediatric AML blasts
  effect vs. pediatric AML blasts in vitro: effective
[1]
  Effectiveness vs. LSCs (AUCstem mean < mitomycin C AUCblast mean, p<0.1): effective
  AUC Stem Mean: 0.0031

## C/C=C1\NC(=O)[C@H]2CSSCC/C=C/[C@H](CC(=O)N[C@H](C(C)C)C(=O)N2)OC(=O)[C@H](C(C)C)NC1=O [Romidepsin]
[1]
  AUC Stem Mean: 0.00041

## CCN(CC)CCNC(=O)c1c(C)[nH]c(/C=C2\C(=O)Nc3ccc(F)cc32)c1C [Sunitinib]
[1]
  AUC Stem Mean: 0.00039

## COc1cccc2c1C(=O)c1c(O)c3c(c(O)c1C2=O)C[C@@](O)(C(C)=O)C[C@@H]3O[C@H]1C[C@H](N)[C@H](O)[C@H](C)O1 [daunorubicin]
[1]; patient sample on the right
  LSC drug response in dose response curves: resistant
[1]
  mean IC50 of LSC samples compared to predicted plasma concentration: opposite pattern
[2]
  Drug specificity (blast specific: AUCstem mean>AUCblast mean; LSC specific: AUCstem mean<AUCblast mean): non-specific
[3]
  mean IC50 of blast samples compared to predicted plasma concentration: opposite pattern

## COc1cc([C@@H]2c3cc4c(cc3[C@@H](O[C@@H]3O[C@@H]5CO[C@@H](C)O[C@H]5[C@H](O)[C@H]3O)[C@H]3COC(=O)[C@H]23)OCO4)cc(OC)c1O [Etoposide]
[1]
  mean IC50 of LSC samples compared to predicted plasma concentration: greater than the predicted plasma concentration
[2]
  Drug specificity (blast specific: AUCstem mean>AUCblast mean; LSC specific: AUCstem mean<AUCblast mean): blast cell specific; also recorded: blast cell-specific
[3]
  mean IC50 of blast samples compared to predicted plasma concentration: less than predicted plasma concentration

## O=C1c2c(O)ccc(O)c2C(=O)c2c(NCCNCCO)ccc(NCCNCCO)c21 [mitoxantrone]
[1]
  mean IC50 of LSC samples compared to predicted plasma concentration: less than predicted plasma concentration
[2]
  Drug specificity (blast specific: AUCstem mean>AUCblast mean; LSC specific: AUCstem mean<AUCblast mean): trended towards blast cell specific; also recorded: trended towards blast cell-specific
[3]
  mean IC50 of blast samples compared to predicted plasma concentration: less than predicted plasma concentration

## Nc1ccccc1NC(=O)c1ccc(CNc2nccc(-c3cccnc3)n2)cc1 [Mocetinostat]
[1]
  Effectiveness vs. LSCs (AUCstem mean < mitomycin C AUCblast mean, p<0.1): LSC effective
  AUC Stem Mean: 0.0029

## Nc1ccn([C@@H]2O[C@H](CO)[C@@H](O)C2(F)F)c(=O)n1 [gemcitabine]
[1]; patient sample on the left
  LSC drug response in dose response curves: sensitive
